Assay results taken from patent US20040063580A1, “Bicyclic triazolone derivatives and a herbicides containing the same” (priority 2000, published 2004).

Experiments:
velvetleaf = test: Herbicidal effects against weeds (post emergence), velvetleaf; format: in vivo; settings: post emergence spray, evaluated two weeks after treatment
Experimental: (§1) Herbicidal Effects Against Weeds (Post Emergence)
(§2) After filling 300 g field soil in jiffypot™ having diameter of 10 cm, the soil was steam sterilized. Seeds of velvetleaf, redroot pigweed, tall morningglory and corn onto the surface of the soil were scattered, and then covered with the soil to a thickness of 0.5 cm for the weed, 1 cm for the crop. When the weed and the crop reached the designated growth stage, they were treated with the compound to be tested.
(§3) Preparation of the Test Solution and the Method of Treatment
(§4) The compound to be tested was dissolved in acetone which contain Tween 20™ and diluted with deionized water to prepare the test solution for 10 g/a and 1 g/a use. The test solution was sprayed on the pots in a device for spraying using spraygun.
(§5) Method of Indicating the Effect and Phytotoxicity
(§6) The effect of the compound tested on the weeds and phytotoxicity on the crops were evaluated two weeks after treatment with the compound as 6 grades from 0 to 5 shown in the Table 9 and 10.
(§7) In the Table 11 and 12, the herbicidal effects were indicated by the following evaluation index.

redroot pigweed = test: Herbicidal effects against weeds (post emergence), redroot pigweed; format: in vivo; settings: post emergence spray, evaluated two weeks after treatment
Experimental: as §1, §2, §3, §4, §5, §6, §7

corn = test: Post emergence test, phytotoxicity on the crop corn; format: in vivo; settings: post emergence spray, evaluated two weeks after treatment
Experimental: as §1, §2, §3, §4, §5, §6
The phytotoxicity was indicated by the following evaluation index.

## CCOC(=O)COC(=O)c1cc(-n2nc3ccc(Cl)cn3c2=O)c(F)cc1Cl [Compound No. A-34, Ethoxycarbonylmethyl 2-chloro-4-fluoro-5-(6-chloro-2,3-dihydro-3-oxo-1,2,4-triazolo[4,3-a]pyridin-2-yl)benzoate]
velvetleaf; 1 g/a
  Evaluation index Velvet leaf: 4 (maximum 87.6 to 99.9)
other
  melting point: 62 to 65 °C
Redroot pigweed; 1 g/a
  Evaluation index Redroot pigweed: 5 (maximum *all dead) 100)
corn; 1 g/a
  Evaluation index Corn (phytotoxicity): 1 (small 0.1 to 12.5)

## C#CCN(c1cc(-n2nc3ccc(Cl)cn3c2=O)c(F)cc1C#N)S(=O)(=O)CC [Compound No. A-5, 6-Chloro-2-[4-cyano-5-(N-ethanesulfonyl-N-propargylamino)-2-fluorophenyl]-1,2,4-triazolo[4,3-a]pyridin-3(2H)-one]
other
  melting point: 176 to 178 °C

## COc1cc(-n2nc3ccc(Cl)cn3c2=O)c(F)cc1Cl [Compound No. A-23, 6-Chloro-2-(4-chloro-2-fluoro-5-methoxyphenyl)-1,2,4-triazolo[4,3-a]pyridin-3(2H)-one]
other
  melting point: 140 to 142 °C

## CCS(=O)(=O)Nc1cc(-n2nc3n(c2=O)CC(C)S3)c(F)cc1C#N (stereo not shown) [C-4]
velvetleaf; 1 g/a
  Evaluation index Velvet leaf: 5 (maximum *all dead) 100)
velvetleaf; 10 g/a
  Evaluation index Velvet leaf: 5 (maximum *all dead) 100)
Redroot pigweed; 1 g/a
  Evaluation index Redroot pigweed: 5 (maximum *all dead) 100)
Redroot pigweed; 10 g/a
  Evaluation index Redroot pigweed: 5 (maximum *all dead) 100)

## CC(C)OC(=O)c1cc(-n2nc3ccc(Cl)cn3c2=O)c(F)cc1Cl [Compound No. A-33, Isopropyl 2-chloro-4-fluoro-5-(6-chloro-2,3-dihydro-3-oxo-1,2,4-triazolo[4,3-a]pyridin-2-yl)benzoate]
other
  melting point: 120 to 123 °C

## C#CC(C)Oc1cc(-n2nc3ccc(Cl)cn3c2=O)c(F)cc1Cl (stereo not shown) [A-26]
velvetleaf; 1 g/a
  Evaluation index Velvet leaf: 5 (maximum *all dead) 100)
velvetleaf; 10 g/a
  Evaluation index Velvet leaf: 5 (maximum *all dead) 100)
Redroot pigweed; 1 g/a
  Evaluation index Redroot pigweed: 5 (maximum *all dead) 100)
Redroot pigweed; 10 g/a
  Evaluation index Redroot pigweed: 5 (maximum *all dead) 100)

## CCC(=O)NS(=O)(=O)c1cc(-n2nc3ccc(Cl)cn3c2=O)c(F)cc1C#N [Compound No. A-20, 5-(6-Chloro-2,3-dihydro-3-oxo-1,2,4-triazolo[4,3-a]pyridin-2-yl)-2-cyano-4-fluoro-N-propionylbenzenesul fonamide]
other
  melting point: 190 to 194 °C

## CCS(=O)(=O)Nc1cc(-n2nc3n(c2=O)CCS3)c(F)cc1C#N [Compound No. C-2, 5,6-Dihydro-2-(4-cyano-5-ethylsulfonylamino-2-fluorophenyl)thiazolo[2,3-c][1,2,4]triazol-3(2H)-one]
velvetleaf; 1 g/a
  Evaluation index Velvet leaf: 5 (maximum *all dead) 100)
velvetleaf; 10 g/a
  Evaluation index Velvet leaf: 5 (maximum *all dead) 100)
Redroot pigweed; 1 g/a
  Evaluation index Redroot pigweed: 5 (maximum *all dead) 100)
Redroot pigweed; 10 g/a
  Evaluation index Redroot pigweed: 5 (maximum *all dead) 100)
corn; 1 g/a
  Evaluation index Corn (phytotoxicity): 0 (no effect 0)
corn; 10 g/a
  Evaluation index Corn (phytotoxicity): 0 (no effect 0)

## CCS(=O)(=O)N(C(C)=O)c1cc(-n2nc3ccc(Cl)cn3c2=O)c(F)cc1C#N [Compound No. A-6, 2-[5-(N-acetyl-N-ethanesulfonylamino)-4-cyano-2-fluorophenyl]-6-chloro-1,2,4-triazolo[4,3-a]pyridin-3(2H)-one]
velvetleaf; 10 g/a
  Evaluation index Velvet leaf: 5 (maximum *all dead) 100)
other
  melting point: 220 to 222 °C
Redroot pigweed; 10 g/a
  Evaluation index Redroot pigweed: 5 (maximum *all dead) 100)
corn; 10 g/a
  Evaluation index Corn (phytotoxicity): 1 (small 0.1 to 12.5)

## Cc1cc2c(-n3nc4ccc(Cl)cn4c3=O)c(F)cc(Cl)c2o1 [A-62, 6-Chloro-2-(7-chloro-5-fluoro-2-methylbenzofuran-4-yl)-1,2,4-triazolo[4,3-a]pyridin-3(2H)-one]
velvetleaf; 1 g/a
  Evaluation index Velvet leaf: 5 (maximum *all dead) 100)
velvetleaf; 10 g/a
  Evaluation index Velvet leaf: 5 (maximum *all dead) 100)
other
  melting point: 205 to 207 °C
Redroot pigweed; 1 g/a
  Evaluation index Redroot pigweed: 5 (maximum *all dead) 100)
Redroot pigweed; 10 g/a
  Evaluation index Redroot pigweed: 5 (maximum *all dead) 100)
corn; 1 g/a
  Evaluation index Corn (phytotoxicity): 1 (small 0.1 to 12.5)
corn; 10 g/a
  Evaluation index Corn (phytotoxicity): 1 (small 0.1 to 12.5)

## CCOC(=O)COc1cc(-n2nc3cc(C)ccn3c2=O)c(F)cc1Cl [A-55]
velvetleaf; 10 g/a
  Evaluation index Velvet leaf: 4 (maximum 87.6 to 99.9)
Redroot pigweed; 10 g/a
  Evaluation index Redroot pigweed: 5 (maximum *all dead) 100)

## C=CCOc1cc(-n2nc3ccc(Cl)cn3c2=O)c(F)cc1Cl [Compound No. A-24]
velvetleaf; 1 g/a
  Evaluation index Velvet leaf: 4 (maximum 87.6 to 99.9)
velvetleaf; 10 g/a
  Evaluation index Velvet leaf: 5 (maximum *all dead) 100)
Redroot pigweed; 1 g/a
  Evaluation index Redroot pigweed: 5 (maximum *all dead) 100)
Redroot pigweed; 10 g/a
  Evaluation index Redroot pigweed: 5 (maximum *all dead) 100)

## C#CCOc1cc(-n2nc3c(Cl)cc(Cl)cn3c2=O)c(F)cc1C#N [Compound No. A-49, 6,8-Dichloro-2-(4-cyano-2-fluoro-5-propargyloxyphenyl)-1,2,4-triazolo[4,3-a]pyridin-3(2H)-one]
other
  melting point: 145 to 147 °C

## C#CCOc1cc(-n2nc3ccc(Cl)cn3c2=O)c(F)cc1C#N [Compound No. A-14, 6-Chloro-2-(4-cyano-2-fluoro-5-propargyloxyphenyl)-1,2,4-triazolo[4,3-a]pyridin-3(2H)-one]
other
  melting point: 209 to 211 °C

## CCC(=O)N(c1cc(-n2nc3ccc(Cl)cn3c2=O)c(F)cc1C#N)S(=O)(=O)CC [A-7]
velvetleaf; 10 g/a
  Evaluation index Velvet leaf: 5 (maximum *all dead) 100)
Redroot pigweed; 10 g/a
  Evaluation index Redroot pigweed: 5 (maximum *all dead) 100)

## CNS(=O)(=O)c1cc(-n2nc3ccc(Cl)cn3c2=O)c(F)cc1C#N [Compound No. A-21, 5-(6-Chloro-2,3-dihydro-3-oxo-1,2,4-triazolo[4,3-a]pyridin-2-yl)-2-cyano-4-fluoro-N-methylbenzenesulfonamide]
other
  melting point: 154 to 157 °C

## COC(=O)C(Cl)Cc1cc(-n2nc3ccc(Cl)cn3c2=O)c(F)cc1Cl (stereo not shown) [Compound No. A-43, Methyl 2-chloro-3-[2-chloro-4-fluoro-5-(6-chloro-2,3-dihydro-3-oxo-1,2,4-triazolo[4,3-a]pyridin-2-yl)phenyl]propionate]
velvetleaf; 1 g/a
  Evaluation index Velvet leaf: 5 (maximum *all dead) 100)
velvetleaf; 10 g/a
  Evaluation index Velvet leaf: 5 (maximum *all dead) 100)
Redroot pigweed; 1 g/a
  Evaluation index Redroot pigweed: 5 (maximum *all dead) 100)
Redroot pigweed; 10 g/a
  Evaluation index Redroot pigweed: 5 (maximum *all dead) 100)
corn; 1 g/a
  Evaluation index Corn (phytotoxicity): 0 (no effect 0)
corn; 10 g/a
  Evaluation index Corn (phytotoxicity): 0 (no effect 0)

## CCS(=O)(=O)Nc1cc(-n2nc3n(c2=O)CCCN3C)c(F)cc1C#N [Compound No. F-2, 5,6,7,8-Tetrahydro-8-methyl-2-(4-cyano-5-ethylsulfonylamino-2-fluorophenyl)-[1,2,4]triazolo [4,3-a]pyrimidin-3(2H)-one]
velvetleaf; 1 g/a
  Evaluation index Velvet leaf: 4 (maximum 87.6 to 99.9)
velvetleaf; 10 g/a
  Evaluation index Velvet leaf: 5 (maximum *all dead) 100)
Redroot pigweed; 1 g/a
  Evaluation index Redroot pigweed: 5 (maximum *all dead) 100)
Redroot pigweed; 10 g/a
  Evaluation index Redroot pigweed: 5 (maximum *all dead) 100)
corn; 1 g/a
  Evaluation index Corn (phytotoxicity): 1 (small 0.1 to 12.5)
corn; 10 g/a
  Evaluation index Corn (phytotoxicity): 3 (big 25.1 to 50.0)

## CCS(=O)(=O)N(C(=O)C(C)(C)C)c1cc(-n2nc3ccc(Cl)cn3c2=O)c(F)cc1C#N [A-8]
velvetleaf; 1 g/a
  Evaluation index Velvet leaf: 5 (maximum *all dead) 100)
velvetleaf; 10 g/a
  Evaluation index Velvet leaf: 5 (maximum *all dead) 100)
Redroot pigweed; 1 g/a
  Evaluation index Redroot pigweed: 5 (maximum *all dead) 100)
Redroot pigweed; 10 g/a
  Evaluation index Redroot pigweed: 5 (maximum *all dead) 100)

## CCOC(=O)C=Cc1cc(-n2nc3ccc(Cl)cn3c2=O)c(F)cc1Cl [A-42, Ethyl 2-chloro-4-fluoro-5-(6-chloro-2,3-dihydro-3-oxo-1,2,4-triazolo[4,3-a]pyridin-2-yl)cinnamate]
other
  melting point: 162 to 165 °C

## CC(C)S(=O)(=O)Nc1cc(-n2nc3ccc(Cl)cn3c2=O)c(F)cc1[N+](=O)[O-] [A-41]
velvetleaf; 1 g/a
  Evaluation index Velvet leaf: 5 (maximum *all dead) 100)
velvetleaf; 10 g/a
  Evaluation index Velvet leaf: 5 (maximum *all dead) 100)
Redroot pigweed; 1 g/a
  Evaluation index Redroot pigweed: 5 (maximum *all dead) 100)
Redroot pigweed; 10 g/a
  Evaluation index Redroot pigweed: 5 (maximum *all dead) 100)

## CC(C)S(=O)(=O)Nc1cc(-n2nc3ccc(Cl)cn3c2=O)c(F)cc1C#N [A-11]
velvetleaf; 10 g/a
  Evaluation index Velvet leaf: 5 (maximum *all dead) 100)
Redroot pigweed; 10 g/a
  Evaluation index Redroot pigweed: 5 (maximum *all dead) 100)

## CCCS(=O)(=O)Nc1cc(-n2nc3ccc(Cl)cn3c2=O)c(F)cc1[N+](=O)[O-] [A-40]
velvetleaf; 10 g/a
  Evaluation index Velvet leaf: 5 (maximum *all dead) 100)
Redroot pigweed; 10 g/a
  Evaluation index Redroot pigweed: 5 (maximum *all dead) 100)

## CCS(=O)(=O)Nc1cc(-n2nc3ccc(Br)cn3c2=O)ccc1C#N [A-45]
velvetleaf; 1 g/a
  Evaluation index Velvet leaf: 5 (maximum *all dead) 100)
Redroot pigweed; 1 g/a
  Evaluation index Redroot pigweed: 5 (maximum *all dead) 100)

## C=C(Cl)COc1cc(-n2nc3ccc(Cl)cn3c2=O)c(F)cc1Cl [A-61]
velvetleaf; 10 g/a
  Evaluation index Velvet leaf: 4 (maximum 87.6 to 99.9)
Redroot pigweed; 10 g/a
  Evaluation index Redroot pigweed: 5 (maximum *all dead) 100)

## C=CCOc1cc(-n2nc3ccc(Cl)cn3c2=O)c(F)cc1C#N [Compound No. A-13, 2-(5-Allyloxy-4-cyano-2-fluorophenyl)-6-chloro-1,2,4-triazolo[4,3-a]pyridin-3(2H)-one]
other
  melting point: 183 to 185 °C

## CC(C)c1sc(F)c(-n2nc3ccc(Cl)cn3c2=O)c1C#N [Compound No. A-18, 6-Chloro-2-(4-cyano-2-fluoro-5-isopropylthiophenyl)-1,2,4-triazolo[4,3-a]pyridin-3(2H)-one]
other
  melting point: 148 to 150 °C

## CCOC(=O)C(C)Oc1cc(-n2nc3ccc(Cl)cn3c2=O)c(F)cc1Cl (stereo not shown) [A-28]
velvetleaf; 1 g/a
  Evaluation index Velvet leaf: 4 (maximum 87.6 to 99.9)
velvetleaf; 10 g/a
  Evaluation index Velvet leaf: 5 (maximum *all dead) 100)
Redroot pigweed; 1 g/a
  Evaluation index Redroot pigweed: 5 (maximum *all dead) 100)
Redroot pigweed; 10 g/a
  Evaluation index Redroot pigweed: 5 (maximum *all dead) 100)
